Experiments:
rat brain tissue slices = assay: calcein AM cell viability staining of brain slices subjected to hypoxia; format: cell-based; conditions: calcein AM MFI, Maraviroc 50 μM, trifluoperazine 100 μM, 1 hour pre-treatment, 30 minutes hypoxia; for Significant? (Dunn's multiple comparisons test vs. vehicle control): Alpha 0.05; for Mean rank 2 (mean rank of treatment group, Kruskal-Wallis): vehicle control mean rank 11.73
Experimental: Brain slices were pre-treated for 1 hour with final concentrations of Maraviroc (50 μM), trifluoperazine (100 μM), and both drugs trifluoperazine and maraviroc against vehicle control for 1 hour, before being subjected to 30 minutes of hypoxia.
Damage to the brain tissue was determined by staining the tissue with acetoxymethyl calcein (calcein AM), available from Abcam Ltd, Cambridge, UK and Thermo Fisher, USA. The assay is a quantitative assay used to determine cell viability.

CCR5 = CCR5 (Mus musculus, UniProt P51682); conditions: compared with CCR5 knockdown; cited from earlier work
CCR5, sequence (P51682 whole entry): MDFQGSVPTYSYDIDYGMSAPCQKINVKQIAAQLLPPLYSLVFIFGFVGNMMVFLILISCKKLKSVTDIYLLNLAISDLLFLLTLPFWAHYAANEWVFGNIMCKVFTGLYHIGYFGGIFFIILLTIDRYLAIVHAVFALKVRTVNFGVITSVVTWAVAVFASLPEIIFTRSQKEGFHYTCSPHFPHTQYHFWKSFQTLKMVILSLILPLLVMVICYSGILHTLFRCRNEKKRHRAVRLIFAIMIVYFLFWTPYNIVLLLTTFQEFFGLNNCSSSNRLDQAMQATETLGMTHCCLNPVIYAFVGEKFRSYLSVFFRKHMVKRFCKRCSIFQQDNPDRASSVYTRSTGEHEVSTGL

## CN1CCN(CCCN2c3ccccc3Sc3ccc(C(F)(F)F)cc32)CC1 [TFP, trifluoperazine]
Rat brain tissue slices
  Significant? (Dunn's multiple comparisons test vs. vehicle control): Yes
  Mean rank diff. (Dunn's multiple comparisons test, vehicle control vs. treatment): −25.87
  Summary (significance stars, Dunn's multiple comparisons test vs. vehicle control): *** ((***) p≤001)
  Z (Dunn's multiple comparisons test vs. vehicle control): 4.056
  Mean rank 2 (mean rank of treatment group, Kruskal-Wallis): 37.60

## Maraviroc
CCR5
  motor recovery post-stroke and cognitive decline post traumatic brain injury: produced similar effects on motor recovery post-stroke and cognitive decline post traumatic brain injury
Rat brain tissue slices
  Significant? (Dunn's multiple comparisons test vs. vehicle control): Yes
  Mean rank diff. (Dunn's multiple comparisons test, vehicle control vs. treatment): −22.07
  Summary (significance stars, Dunn's multiple comparisons test vs. vehicle control): ** ((**) p≤0.01)
  Z (Dunn's multiple comparisons test vs. vehicle control): 3.460
  Mean rank 2 (mean rank of treatment group, Kruskal-Wallis): 33.80

From US20240226108A9, “TREATMENT OF BRAIN INJURIES” (ASTON UNIVERSITY, priority 2021, published 2024)
